Test [1] relates to anti-etofenprox antibody I (E-antibody I). The test is described as follows: Indirect competitive ELISA employing E-antibody I. It is filed as binding, rabbit. Conditions: inhibition rate relative to etofenprox at its IC50 concentration (=100%); antibody 1/40,000, 50% methanol. The method, then:
1. To a 96-well polystyrene microtiter plate, a solution of the conjugate between rabbit serum albumin (RSA) and the haptenic compound (I) dissolved in a coating buffer solution [10 mM phosphate buffer solution (pH 7.5), 100 mM NaC1] to give […] was added as an antigen at a ratio of 0.1 ml/well, followed by incubation at 4° C. overnight, whereby the antigen was adsorbed on the plate. After the excess solution was drained, a 3% solution of skim milk was added to the wells at a ratio of 0.3 ml/well, followed by incubation at 25° C. for one hour. The plate was washed thrice with a washing buffer [10 mM phosphate buffer solution (pH 7.2), 0.8% NaC1, 0.02% KCl, 0.02% "Tween 20"], whereby an antigen-coated plate was obtained.
2. The E-antibody I was diluted 20,000-fold with a diluting buffer [10 mM phosphate buffer solution (pH 7.5), 0.8% NaCl, 0.02% KCl] and was then mixed with a solution of etofenprox in methanol at a ratio of 1:1 to give an antibody concentration and a methanol concentration, both in the resulting solution, of 1/40,000 and 50%, respectively. The solution was reacted by incubation at 25° C. for one hour. The reaction mixture was added to the antigen-coated plate at a rate of 0.1 ml/well, followed by the reaction at 25° C. for one hour. The plate was then washed thrice with the washing buffer.
3. A conjugate between horseradish peroxidase and anti-rabbit IgG goat IgG (a second antibody) was diluted 10,000-fold with the washing buffer. The diluted conjugate was added to the antigen-coated plate at a rate of 0.1 ml/well, followed by incubation at 25° C. for one hour. The plate was washed thrice with the washing buffer.
4. To the antigen-coated plate, a chromogenic solution of o-phenylenediamine [0.2% (v/v) o-phenylenediamine and 100 mM phosphate-citrate buffer solution [pH 5.0, 0.003% (v/v) hydrogen peroxide] was added in an amount of 0.2 ml/well, followed by incubation at 25° C. for 10 minutes. The enzymatic reaction was then terminated by adding 4N sulfuric acid to the plate by at a rate of 0.05 ml/well. The absorbances at 492 nm and 630 nm were thereafter measured, respectively. According to this method, etofenprox concentrations ranging from 10 ng/ml to 10,000 ng/ml were successfully measured.
A solution of each of various pyrethroid compounds in methanol (having a concentration of 2-20,000 ng/ml) was mixed with a solution of the E antibody I, which had been diluted 20,000-fold with a diluting buffer, at a ratio of 1:1, followed by incubation at 25° C. for one hour.
Using the reaction mixture, measurement was conducted by the ELISA method as described in Example 8. The absorbance of the reaction mixture which had been obtained without addition of any pyrethroid compound is designated as 100%. The concentration of etophenprox. which inhibited 50% of the absorbance is designated as IC50 concentration. The inhibition rates of other pyrethroid compounds when the inhibition rate of ethophenprox at IC50 concentration is designated as 100% are shown as cross reactivity in Table 1.
Background: An ELISA detects its analyte on a solid surface through an enzyme-linked reagent.

The subject of test [2] is anti-etofenprox antibody II (E-antibody II). The test is described as follows: Indirect competitive ELISA employing E-antibody II. It is filed as binding, rabbit. The note with it: inhibition rate relative to etofenprox at its IC50 concentration (=100%); antibody 1/80,000, 20% methanol. The procedure:
The ELISA method employing E-antibody II, on the other hand, will be described next. As the antigen, a 0.01 μg/ml solution of the conjugate between the haptenic compound (II) and RSA was employed. An E-antibody II solution, which had been diluted 64,000-fold, and a methanol solution of etofenprox were mixed at a ratio of 4:1 to give an antibody concentration and methanol concentration, each in the resulting solution, of 1/80,000 and 20%, respectively. The resulting solution was then reacted. As a second antibody, antirabbit IgG goat IgG in the form of a 5000-fold dilution was employed. In a similar manner to the above ELISA method, etofenprox concentrations ranging from 3 ng/ml to 1,000 ng/ml were successfully measured.
In addition, solutions of each of various pyrethroid compounds in methanol (concentration: 5-50,000 ng/ml) were each mixed with an E antibody II solution, which had been diluted 64,000-fold, at a ratio of 1:4, followed by incubation at 25° C. for one hour. The reaction mixture was treated as described in Example 8 and its cross reactivity was obtained.
The inhibition rates of other pyrethroid compounds when the inhibition rate of ethophenprox at IC50 concentration is designated as 100% are also shown as cross reactivity in Table 1.

In the case of `C=CCC1=C(C)C(OC(=O)C2C(C=C(C)C)C2(C)C)CC1=O` (stereo not shown) [Allethrin, allethrin], the “Cross reactivity (%) E antibody I” value in test [1] came out at 46%. Besides, the “Cross reactivity (%) E antibody II” value in test [2] came to 54%.
As for `Cc1c(COC(=O)C2C(C=C(Cl)C(F)(F)F)C2(C)C)cccc1-c1ccccc1` (stereo not shown) [Biphenthrin, biphenthrin], the “Cross reactivity (%) E antibody I” value in test [1] is on record as 86%. The “Cross reactivity (%) E antibody II” value in test [2] stood at 81%.
On the same counts, the results for `CCOc1ccc(C2(C(=O)OC(C#N)c3cccc(Oc4ccccc4)c3)CC2(Cl)Cl)cc1` (stereo not shown) [Cycloprothrin, cycloprothrin] are 103% and 54%.
For the molecule `CC1(C)C(/C=C(\Cl)C(F)(F)F)C1C(=O)OC(C#N)c1cccc(Oc2ccccc2)c1` (stereo not shown) [Cyhalothrin, cyhalothrin], the “Cross reactivity (%) E antibody I” value in test [1] is 92%. For the same molecule, the “Cross reactivity (%) E antibody II” value in test [2] turned out to be 36%.
For `CC1(C)C(C(=O)OC(C#N)c2cccc(Oc3ccccc3)c2)C1(C)C` (stereo not shown) [Fenpropathrin, fenpropathrin] the same measures were 136% and 48%.
For `CC(C)C(C(=O)OC(C#N)c1cccc(Oc2ccccc2)c1)c1ccc(Cl)cc1` (stereo not shown) [Fenvarerate, fenvarerate] the same measures were 47% and 50%.
As for `CC(C)[C@H](C(=O)OC(C#N)c1cccc(Oc2ccccc2)c1)c1ccc(OC(F)F)cc1` (stereo partly shown) [Flucythrinate, flucythrinate], the “Cross reactivity (%) E antibody I” value in test [1] turned out to be 126%. The “Cross reactivity (%) E antibody II” value in test [2] is 60%.
On the same counts, the results for `CCOc1ccc(C(COCc2cccc(Oc3ccc(Cl)cc3)c2)C(F)(F)F)cc1` (stereo not shown) [Flufenprox] are 108% and 74%.
For `CC(C)[C@H](Nc1ccc(C(F)(F)F)cc1Cl)C(=O)OC(C#N)c1cccc(Oc2ccccc2)c1` (stereo partly shown) [Fluvalinate, fluvalinate] the same measures were 70% and 23%.
On the same counts, the results for `CC(C)(COCc1cccc(Oc2ccccc2)c1)c1ccc(OC(F)(F)Br)cc1` [Halfenprox, halfenprox] are 85% and 75%.
For the molecule `CC1(C)[C@H](C(=O)OCc2coc(Cc3ccccc3)c2)[C@@H]1/C=C1\CCSC1=O` [Kadethrin, kadethrin], the “Cross reactivity (%) E antibody I” value in test [1] is 62%. The “Cross reactivity (%) E antibody II” value in test [2] came out at 164%.
Consider `CCOc1ccc(C(C)(C)CCCc2cccc(Oc3ccccc3)c2)cc1` [MTI-790, 1-(3-phenoxyphenyl)-4-(4-ethoxyphenyl)-4-methylpentane], for which the “Cross reactivity (%) E antibody I” value in test [1] amounted to 23%. The “Cross reactivity (%) E antibody II” value in test [2] worked out at 37%.
As for `CCOc1ccc(C(C)(C)CCCc2ccc(F)c(Oc3ccccc3)c2)cc1` [MTI-800, 1-(3-phenoxy-4-fluorophenyl)-4-(4-ethoxyphenyl)-4-methylpentane], the “Cross reactivity (%) E antibody I” value in test [1] worked out at 54%. The “Cross reactivity (%) E antibody II” value in test [2] stood at 34%.
On to `CC(C)=CC1C(C(=O)OCc2coc(Cc3ccccc3)c2)C1(C)C` (stereo not shown) [Resmethrin, resmethrin], for which the “Cross reactivity (%) E antibody I” value in test [1] came out at 74%. Further, in test [2], the “Cross reactivity (%) E antibody II” value is reported as 85%.
For `CCOc1ccc([Si](C)(C)OCc2cccc(Oc3ccccc3)c2)cc1` [SSI-116, dimethyl-(4-ethoxyphenyl)-(3-phenoxybenzyloxy)silane] the same measures were 70% and 103%.
For `CCOc1ccc([Si](C)(C)CCCc2ccc(F)c(Oc3ccccc3)c2)cc1` [Silafluofen, silafluofen] the same measures were 57% and 32%.
On the same counts, the results for `CC1(C)[C@H](C(=O)O[C@H](C#N)c2cccc(Oc3ccccc3)c2)[C@@H]1C(Br)C(Br)(Br)Br` (stereo partly shown) [Tralomethrin, tralomethrin] are 116% and 67%.

These data come from US5608104A, “Immunological detection method of pyrethroid compound, haptenic compound, intermediate for the haptenic compound, immunogen and antibody” (Mitsui Toatsu Chemicals, Inc., priority 1993, dated 1997).
